One may read the EC50 as the concentration that produces a half-maximal response.

The target in assay [1] is T1, RXRα (Homo sapiens, UniProt P19793).
T1 construct: expressed in transfected cells; host or cells: CV1 cells
T1 sequence (P19793 1-462): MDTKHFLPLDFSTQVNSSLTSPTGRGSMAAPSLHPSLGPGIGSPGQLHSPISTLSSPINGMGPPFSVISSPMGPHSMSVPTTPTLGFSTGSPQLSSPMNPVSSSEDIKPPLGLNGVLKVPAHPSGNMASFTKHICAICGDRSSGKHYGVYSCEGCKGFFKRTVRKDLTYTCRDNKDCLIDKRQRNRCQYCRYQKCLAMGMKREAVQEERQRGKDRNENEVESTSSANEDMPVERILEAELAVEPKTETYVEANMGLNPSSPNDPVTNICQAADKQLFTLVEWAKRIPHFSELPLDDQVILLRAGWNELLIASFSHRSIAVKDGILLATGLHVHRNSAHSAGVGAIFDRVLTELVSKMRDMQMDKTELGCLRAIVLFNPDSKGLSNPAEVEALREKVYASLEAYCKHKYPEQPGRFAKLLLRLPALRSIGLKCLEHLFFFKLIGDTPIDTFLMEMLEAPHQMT
The assay is described as follows: Holoreceptor transactivation assay, RXRα. In kind it is cell-based. To be noted: for EC50: CV1 cells, luciferase reporter, 36 hours incubation; for Transactivation Assay Afficacy (% of RA activity) RXRα: relative to all trans retinoic acid. The text has this:
(§1) A holoreceptor transactivation assay and a ligand binding assay which measure the agonist like activity of the compounds of the invention, or their ability to bind to the several retinoid receptor sub-types, respectively, are described in published PCT Application No. WO WO93/11755 (particularly on pages 30-33 and 37-41) published on Jun. 24, 1993, the specification of which is also incorporated herein by reference. A description of the holoreceptor transactivation assay is also provided below.
(§2) CV1 cells (5,000 cells/well) were transfected with an RAR reporter plasmid ▴MTV-TREp-LUC (50 ng) along with one of the RAR expression vectors (10 ng) in an automated 96-well format by the calcium phosphate procedure of Heyman et al. Cell 68, 397-406. (8). For RXR transactivation assays, an RXR-responsive reporter plasmid CRBP II-TK-LUC (50 ng) along with one of the RXR expression vectors (10 ng) was used substantially as described by Heyman et al. above, and Allegretto et al. J. Biol. Chem. 268, 26625-26633. (8, 9). RXR-reporter contained DRI elements from human CRBP II promoter (see Mangelsdorf et al. The Retinoids: Biology, Chemistry and Medicine, pp 319-349, Raven Press Ltd., New York and Heyman et al., cited above) (1, 8). A β-galactosidase (50 ng) expression vector was used as an internal control in the transfections to normalize for variations in transfection efficiency. The cells were transfected in triplicate for 6 hours, followed by incubation with retinoids for 36 hours, and the extracts were assayed for luciferase and β-galactosidase activities. The detailed experimental procedure for holoreceptor transactivations has been described in Heyman et al. above, and Allegretto et al. cited above. The results obtained in this assay in connection with examplary compounds in accordance with the present invention are expressed in EC50 numbers, as they are also in the chimeric receptor transactivation assay. The Heyman et al. Cell 68, 397-406, Allegretto et al. J. Biol. Chem. 268, 26625-26633, and Mangelsdorf et al. The Retinoids: Biology, Chemistry and Medicine, pp 319-349, Raven Press Ltd., New York, are expressly incorporated herein by reference. The results of ligand binding assay are expressed in KD50 numbers.

Assay [2] deals with T1, RXRα. The assay is described as follows: Ligand binding assay, RXRα. As to conditions: read-out: Ligand Binding Assay KD50 RXRα.
Text: as §1
as §2, with “The Heyman et al. Cell 68, 397-406, Allegretto et al. J. Biol. Chem. 268, 26625-26633, and Mangelsdorf et al. The Retinoids: Biology, Chemistry and Medicine, pp 319-349, Raven Press Ltd., New York, are expressly incorporated herein by reference. The results of ligand binding assay are expressed in KD50 numbers.” left out

For the compound `CC(/C=C/c1ccccc1-c1ccc2c(c1)C(C)(C)CCC2(C)C)=C\C(=O)O` [Compound 9, 3-Methyl-5-[2-(5,5,8,8,-tetramethyl-5,6,7,8-tetrahydronaphth-2-yl)phenyl]pent-2(E),4(E)-dienoic Acid], on RXRα [1], it took 290 nM to reach a half-maximal effect (EC50) and the “Transactivation Assay Afficacy (% of RA activity) RXRα” value is 59.0 % of RA activity.

`CC(C=CC1CC1(C)c1cc2c(cc1C)C(C)(C)CCC2(C)C)=CC(=O)O` (stereo not drawn) [Compound 13, 3,7-Dimethyl,6(RS),7(SR) methano-7-(3,5,5,8,8-pentamethyl-5,6,7,8-tetrahydronaphth-2-yl),2(E),4(E)-heptadienoic Acid]: at RXRα [1], the EC50 was determined as 130 nM and the “Transactivation Assay Afficacy (% of RA activity) RXRα” value is reported as 55.0 % of RA activity. Further, the Kd at RXRα [2] was 71 nM.

On to `CC(C=CC1CC1(C)c1ccc2c(c1)C(C)(C)CCS2)=CC(=O)O` (stereo not drawn) [Compound 17, 3,7-Dimethyl,6(RS),7(SR) methano-7-(4,4-dimethylthiochroman-6-yl) 2(E),4(E)-heptadienoic Acid], for which, at RXRα [1], a half-maximal response (EC50) required 30 nM and the “Transactivation Assay Afficacy (% of RA activity) RXRα” value is 111 % of RA activity. For the same compound, at RXRα [2], the Kd stood at 3 nM.

For `CC(C=CC1CC1(C)c1ccc2c(c1)C(C)(C)CCO2)=CC(=O)O` (stereo not drawn) [Compound 21, 3,7-Dimethyl,6(RS),7(SR) methano-7-(4,4-dimethyl-chroman-6-yl),2(E),4(E)-heptadienoic Acid], at RXRα [1], the EC50 was determined as 27 nM and the “Transactivation Assay Afficacy (% of RA activity) RXRα” value is listed as 83.0 % of RA activity. Besides, the Kd at RXRα [2] came out at 5 nM.

For the origin of these results see patent US20020082419A1, “2,4-pentadienoic acid derivatives having retinoid-like biological activity” (Allergan Sales, Inc., priority 1995, published 2002).
